Source: BindingDB's records for PubMed 20126400 (University of Oklahoma, 2010)

Experiments:
Assay in all cases: Ray2010 Assay 74
[1] = biological target: 5-hydroxytryptamine receptor 1B (Homo sapiens, UniProt P28222)
From the text: (§1) Table S2 shows raw Ki data for the current study combined with data collected from the literature for the ten additional compounds.

[2] = biological target: 5-hydroxytryptamine receptor 1E (Homo sapiens, UniProt P28566)
From the text: as §1

[3] = biological target: 5-hydroxytryptamine receptor 2A (Homo sapiens, UniProt P28223)
From the text: as §1

[4] = biological target: 5-hydroxytryptamine receptor 5A (Homo sapiens, UniProt P47898)
From the text: as §1

[5] = biological target: T1, Alpha-1B adrenergic receptor (Homo sapiens, UniProt P35368)
T1 sequence (P35368 whole entry): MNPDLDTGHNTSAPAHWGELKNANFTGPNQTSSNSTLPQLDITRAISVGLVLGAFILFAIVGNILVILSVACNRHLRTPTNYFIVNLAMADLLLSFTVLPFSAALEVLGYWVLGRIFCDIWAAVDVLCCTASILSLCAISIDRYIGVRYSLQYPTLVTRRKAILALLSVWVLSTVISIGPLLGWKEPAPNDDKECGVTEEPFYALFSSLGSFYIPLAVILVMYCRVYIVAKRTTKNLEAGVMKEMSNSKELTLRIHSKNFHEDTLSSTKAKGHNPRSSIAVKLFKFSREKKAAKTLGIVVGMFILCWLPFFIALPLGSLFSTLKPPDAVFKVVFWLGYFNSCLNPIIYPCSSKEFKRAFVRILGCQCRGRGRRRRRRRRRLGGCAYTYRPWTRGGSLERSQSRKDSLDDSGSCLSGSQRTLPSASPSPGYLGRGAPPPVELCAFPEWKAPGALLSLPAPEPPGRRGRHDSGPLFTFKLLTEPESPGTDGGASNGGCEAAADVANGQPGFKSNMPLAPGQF
From the text: as §1

[6] = biological target: D(1A) dopamine receptor (Homo sapiens, UniProt P21728)
From the text: as §1

[7] = biological target: T2, D(4) dopamine receptor (Homo sapiens, UniProt P21917)
T2 sequence (P21917 whole entry): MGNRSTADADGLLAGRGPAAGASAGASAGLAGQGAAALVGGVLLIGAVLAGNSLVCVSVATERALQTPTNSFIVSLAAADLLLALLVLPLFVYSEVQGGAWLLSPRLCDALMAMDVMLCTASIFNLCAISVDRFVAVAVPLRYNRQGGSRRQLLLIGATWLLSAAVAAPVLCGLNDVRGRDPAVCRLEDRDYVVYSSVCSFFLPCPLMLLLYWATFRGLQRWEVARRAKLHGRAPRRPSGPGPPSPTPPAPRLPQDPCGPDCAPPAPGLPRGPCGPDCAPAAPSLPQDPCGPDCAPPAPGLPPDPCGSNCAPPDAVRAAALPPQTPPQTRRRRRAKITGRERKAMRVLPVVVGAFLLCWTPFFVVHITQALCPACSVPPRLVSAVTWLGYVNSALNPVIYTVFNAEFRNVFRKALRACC
From the text: as §1

[8] = biological target: Histamine H1 receptor (Homo sapiens, UniProt P35367)
From the text: as §1

[9] = biological target: Histamine H2 receptor (Homo sapiens, UniProt P25021)
From the text: as §1

[10] = biological target: T3, Muscarinic acetylcholine receptor M1 (Homo sapiens, UniProt P11229)
T3 sequence (P11229 whole entry): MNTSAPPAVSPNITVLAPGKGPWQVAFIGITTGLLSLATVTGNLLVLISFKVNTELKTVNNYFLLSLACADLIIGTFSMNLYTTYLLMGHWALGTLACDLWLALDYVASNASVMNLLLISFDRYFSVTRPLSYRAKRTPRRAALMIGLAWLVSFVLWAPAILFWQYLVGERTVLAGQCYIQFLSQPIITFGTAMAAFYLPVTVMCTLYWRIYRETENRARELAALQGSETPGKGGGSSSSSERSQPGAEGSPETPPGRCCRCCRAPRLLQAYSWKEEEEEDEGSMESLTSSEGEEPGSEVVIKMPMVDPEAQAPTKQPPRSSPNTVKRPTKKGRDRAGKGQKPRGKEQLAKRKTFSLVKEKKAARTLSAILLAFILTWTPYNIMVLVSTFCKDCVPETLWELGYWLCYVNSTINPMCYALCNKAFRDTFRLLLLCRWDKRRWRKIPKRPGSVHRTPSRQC
From the text: as §1

[11] = biological target: T4, Muscarinic acetylcholine receptor M5 (Homo sapiens, UniProt P08912)
T4 sequence (P08912 whole entry): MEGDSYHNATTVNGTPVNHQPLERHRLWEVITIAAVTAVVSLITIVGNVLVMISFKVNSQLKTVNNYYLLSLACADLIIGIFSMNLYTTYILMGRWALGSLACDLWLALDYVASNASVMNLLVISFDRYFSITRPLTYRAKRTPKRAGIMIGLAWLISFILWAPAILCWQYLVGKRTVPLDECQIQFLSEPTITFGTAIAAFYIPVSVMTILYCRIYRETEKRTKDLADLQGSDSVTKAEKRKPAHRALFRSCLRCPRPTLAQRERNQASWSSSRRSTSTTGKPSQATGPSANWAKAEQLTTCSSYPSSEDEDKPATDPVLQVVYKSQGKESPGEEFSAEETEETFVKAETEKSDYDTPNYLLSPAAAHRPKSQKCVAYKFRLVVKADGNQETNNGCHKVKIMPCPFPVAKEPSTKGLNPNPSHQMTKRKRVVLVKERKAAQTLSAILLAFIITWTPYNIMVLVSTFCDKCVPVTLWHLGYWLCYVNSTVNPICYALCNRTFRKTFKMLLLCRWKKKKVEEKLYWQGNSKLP
From the text: as §1

[12] = biological target: Sodium-dependent dopamine transporter (Homo sapiens, UniProt Q01959)
From the text: as §1

[13] = biological target: Sodium-dependent noradrenaline transporter (Homo sapiens, UniProt P23975)
From the text: as §1

[14] = biological target: Sodium-dependent serotonin transporter (Homo sapiens, UniProt P31645)
From the text: as §1

5-hydroxytryptamine receptor 1E, sequence (P28566 whole entry): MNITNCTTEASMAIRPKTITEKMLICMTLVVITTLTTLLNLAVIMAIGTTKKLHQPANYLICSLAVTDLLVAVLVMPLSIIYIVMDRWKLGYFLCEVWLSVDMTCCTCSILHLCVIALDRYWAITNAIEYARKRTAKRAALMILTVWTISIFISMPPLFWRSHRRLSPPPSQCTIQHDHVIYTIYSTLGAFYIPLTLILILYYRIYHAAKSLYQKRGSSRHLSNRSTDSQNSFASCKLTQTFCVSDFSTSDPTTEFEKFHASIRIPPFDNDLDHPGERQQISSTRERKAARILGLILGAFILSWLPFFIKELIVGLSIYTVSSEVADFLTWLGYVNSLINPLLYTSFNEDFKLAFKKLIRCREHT
D(1A) dopamine receptor, sequence (P21728 whole entry): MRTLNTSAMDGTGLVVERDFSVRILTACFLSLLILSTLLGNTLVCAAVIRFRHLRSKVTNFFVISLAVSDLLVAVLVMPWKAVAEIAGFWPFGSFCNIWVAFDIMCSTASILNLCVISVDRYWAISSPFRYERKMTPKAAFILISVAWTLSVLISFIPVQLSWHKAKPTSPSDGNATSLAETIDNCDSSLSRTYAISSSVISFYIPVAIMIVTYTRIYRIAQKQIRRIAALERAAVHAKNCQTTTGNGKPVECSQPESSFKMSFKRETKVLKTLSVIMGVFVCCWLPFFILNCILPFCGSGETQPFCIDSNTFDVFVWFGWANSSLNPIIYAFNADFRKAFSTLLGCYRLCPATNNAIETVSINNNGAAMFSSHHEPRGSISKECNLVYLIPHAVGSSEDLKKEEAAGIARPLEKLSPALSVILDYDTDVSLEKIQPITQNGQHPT
Histamine H2 receptor, sequence (P25021 whole entry): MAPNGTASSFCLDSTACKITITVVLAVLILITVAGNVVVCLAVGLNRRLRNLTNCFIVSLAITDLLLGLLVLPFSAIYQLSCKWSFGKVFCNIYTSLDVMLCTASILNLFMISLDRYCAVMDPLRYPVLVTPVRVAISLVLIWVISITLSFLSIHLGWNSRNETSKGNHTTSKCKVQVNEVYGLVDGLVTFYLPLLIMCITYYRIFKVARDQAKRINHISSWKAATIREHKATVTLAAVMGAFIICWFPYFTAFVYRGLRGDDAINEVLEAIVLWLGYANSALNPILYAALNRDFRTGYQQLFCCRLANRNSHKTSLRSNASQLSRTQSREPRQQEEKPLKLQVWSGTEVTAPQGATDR
Sodium-dependent dopamine transporter, sequence (Q01959 whole entry): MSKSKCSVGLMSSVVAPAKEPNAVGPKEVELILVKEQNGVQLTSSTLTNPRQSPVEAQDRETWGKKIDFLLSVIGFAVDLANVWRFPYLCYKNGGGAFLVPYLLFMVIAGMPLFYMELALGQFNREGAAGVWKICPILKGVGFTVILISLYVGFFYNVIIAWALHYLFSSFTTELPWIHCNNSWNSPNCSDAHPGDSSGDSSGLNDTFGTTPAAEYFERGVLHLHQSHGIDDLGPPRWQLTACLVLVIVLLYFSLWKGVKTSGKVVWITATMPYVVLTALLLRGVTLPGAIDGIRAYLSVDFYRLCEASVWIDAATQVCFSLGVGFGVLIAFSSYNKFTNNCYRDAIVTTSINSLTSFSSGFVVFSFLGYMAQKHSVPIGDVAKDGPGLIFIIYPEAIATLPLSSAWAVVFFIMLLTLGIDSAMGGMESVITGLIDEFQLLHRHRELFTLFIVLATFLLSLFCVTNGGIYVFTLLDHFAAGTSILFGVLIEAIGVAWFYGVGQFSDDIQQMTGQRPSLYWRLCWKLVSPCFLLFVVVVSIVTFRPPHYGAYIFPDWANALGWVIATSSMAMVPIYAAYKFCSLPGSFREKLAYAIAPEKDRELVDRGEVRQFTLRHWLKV
Sodium-dependent noradrenaline transporter, sequence (P23975 whole entry): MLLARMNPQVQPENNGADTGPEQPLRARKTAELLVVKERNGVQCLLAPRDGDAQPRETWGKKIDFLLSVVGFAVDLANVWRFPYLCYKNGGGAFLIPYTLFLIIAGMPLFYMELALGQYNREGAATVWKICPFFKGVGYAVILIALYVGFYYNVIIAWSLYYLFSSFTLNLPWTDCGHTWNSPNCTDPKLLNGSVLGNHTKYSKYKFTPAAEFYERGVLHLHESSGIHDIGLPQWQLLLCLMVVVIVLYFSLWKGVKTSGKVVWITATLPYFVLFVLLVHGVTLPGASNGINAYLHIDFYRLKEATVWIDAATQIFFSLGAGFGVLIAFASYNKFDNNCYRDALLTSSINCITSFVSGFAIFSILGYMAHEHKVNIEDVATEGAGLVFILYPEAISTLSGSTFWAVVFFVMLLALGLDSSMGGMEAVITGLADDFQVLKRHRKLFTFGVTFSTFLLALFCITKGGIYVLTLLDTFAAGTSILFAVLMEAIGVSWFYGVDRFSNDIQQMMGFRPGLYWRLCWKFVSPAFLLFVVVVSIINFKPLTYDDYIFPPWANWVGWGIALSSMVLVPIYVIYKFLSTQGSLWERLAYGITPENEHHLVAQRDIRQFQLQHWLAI
5-hydroxytryptamine receptor 5A, sequence (P47898 whole entry): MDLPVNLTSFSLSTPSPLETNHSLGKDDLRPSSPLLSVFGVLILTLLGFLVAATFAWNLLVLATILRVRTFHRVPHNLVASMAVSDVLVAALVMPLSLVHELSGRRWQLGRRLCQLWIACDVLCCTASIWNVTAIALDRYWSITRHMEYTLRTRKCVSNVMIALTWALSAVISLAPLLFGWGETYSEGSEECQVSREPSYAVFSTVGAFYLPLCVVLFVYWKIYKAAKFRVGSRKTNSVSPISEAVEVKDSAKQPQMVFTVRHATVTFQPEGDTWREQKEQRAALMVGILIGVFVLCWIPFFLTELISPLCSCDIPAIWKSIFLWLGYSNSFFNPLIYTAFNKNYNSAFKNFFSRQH
Sodium-dependent serotonin transporter, sequence (P31645 whole entry): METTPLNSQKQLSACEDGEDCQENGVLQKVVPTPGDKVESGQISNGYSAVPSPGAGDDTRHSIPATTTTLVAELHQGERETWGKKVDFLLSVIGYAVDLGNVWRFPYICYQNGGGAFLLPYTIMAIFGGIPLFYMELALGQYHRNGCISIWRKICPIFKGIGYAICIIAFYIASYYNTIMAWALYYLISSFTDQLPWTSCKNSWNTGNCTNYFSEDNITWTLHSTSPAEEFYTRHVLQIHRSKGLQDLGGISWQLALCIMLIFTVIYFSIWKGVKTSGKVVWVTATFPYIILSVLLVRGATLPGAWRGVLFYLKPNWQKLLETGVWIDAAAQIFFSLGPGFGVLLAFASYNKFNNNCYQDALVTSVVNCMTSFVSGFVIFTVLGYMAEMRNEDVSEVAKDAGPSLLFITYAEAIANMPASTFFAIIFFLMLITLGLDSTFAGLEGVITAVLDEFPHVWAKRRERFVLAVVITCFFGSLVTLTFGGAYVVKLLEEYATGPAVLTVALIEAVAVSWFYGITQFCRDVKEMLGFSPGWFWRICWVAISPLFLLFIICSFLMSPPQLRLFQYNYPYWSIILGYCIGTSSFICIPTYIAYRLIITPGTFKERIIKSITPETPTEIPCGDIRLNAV
Histamine H1 receptor, sequence (P35367 whole entry): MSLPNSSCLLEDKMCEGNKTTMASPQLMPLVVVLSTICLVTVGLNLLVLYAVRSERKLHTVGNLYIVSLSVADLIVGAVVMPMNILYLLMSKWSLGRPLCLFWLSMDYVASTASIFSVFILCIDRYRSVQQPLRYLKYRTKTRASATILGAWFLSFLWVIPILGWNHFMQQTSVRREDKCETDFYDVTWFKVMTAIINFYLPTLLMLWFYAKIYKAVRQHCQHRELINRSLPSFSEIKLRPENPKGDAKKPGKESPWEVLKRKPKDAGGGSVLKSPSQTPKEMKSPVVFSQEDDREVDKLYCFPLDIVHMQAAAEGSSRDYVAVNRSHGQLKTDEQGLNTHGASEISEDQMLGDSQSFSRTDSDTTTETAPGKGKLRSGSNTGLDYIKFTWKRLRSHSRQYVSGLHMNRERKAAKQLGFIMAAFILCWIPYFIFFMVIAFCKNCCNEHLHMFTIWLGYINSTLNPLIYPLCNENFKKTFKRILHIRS
5-hydroxytryptamine receptor 2A, sequence (P28223 whole entry): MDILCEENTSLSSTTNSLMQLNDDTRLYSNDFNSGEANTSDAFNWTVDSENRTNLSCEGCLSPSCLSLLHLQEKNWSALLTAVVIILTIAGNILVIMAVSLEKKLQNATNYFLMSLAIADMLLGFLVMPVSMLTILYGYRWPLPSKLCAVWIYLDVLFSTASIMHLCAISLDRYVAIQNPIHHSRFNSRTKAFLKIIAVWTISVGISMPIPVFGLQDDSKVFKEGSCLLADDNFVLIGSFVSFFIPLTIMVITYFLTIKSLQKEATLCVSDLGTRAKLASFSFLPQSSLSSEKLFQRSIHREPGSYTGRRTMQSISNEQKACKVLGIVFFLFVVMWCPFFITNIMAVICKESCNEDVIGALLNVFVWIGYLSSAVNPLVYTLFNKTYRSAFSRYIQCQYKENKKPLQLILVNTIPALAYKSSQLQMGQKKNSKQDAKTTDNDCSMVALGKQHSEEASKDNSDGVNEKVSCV
5-hydroxytryptamine receptor 1B, sequence (P28222 whole entry): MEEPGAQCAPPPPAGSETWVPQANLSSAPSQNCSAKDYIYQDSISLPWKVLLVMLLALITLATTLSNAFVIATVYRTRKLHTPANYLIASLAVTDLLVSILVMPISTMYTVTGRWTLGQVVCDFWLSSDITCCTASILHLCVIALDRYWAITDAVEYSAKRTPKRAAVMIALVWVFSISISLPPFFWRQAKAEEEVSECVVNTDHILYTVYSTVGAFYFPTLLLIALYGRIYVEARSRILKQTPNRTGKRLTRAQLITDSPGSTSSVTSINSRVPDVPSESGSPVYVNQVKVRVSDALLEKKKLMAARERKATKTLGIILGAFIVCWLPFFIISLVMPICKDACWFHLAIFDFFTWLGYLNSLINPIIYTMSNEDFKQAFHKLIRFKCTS

| Molecule | Ki [1] [µM] | Ki [2] [nM] | Ki [3] [nM] | Ki [4] [µM] | Ki [5] [µM] | Ki [6] [µM] | Ki [7] [µM] | Ki [8] [nM] | Ki [9] [µM] | Ki [10] [µM] | Ki [11] [µM] | Ki [12] [µM] | Ki [13] [µM] | Ki [14] [nM] |
| --- | --- | --- | --- | --- | --- | --- | --- | --- | --- | --- | --- | --- | --- | --- |
| COc1cc(CC(C)N)c(OC)cc1C (stereo not drawn) [(+/-)2-(2,5-Dimethoxy-4-methyl-phenyl)-1-methyl-ethylamine] | > 10 | 3540 | 507 | > 10 | > 10 | > 10 | > 10 | > 10000 | > 10 | > 10 | > 10 | > 10 | > 10 | > 10000 |
| CC(C)N(CCc1c[nH]c2ccccc12)C(C)C [dipt] | > 10 | > 10000 | > 10000 | > 10 | > 10 | > 10 | > 10 | 3580 | > 10 | > 10 | > 10 | > 10 | > 10 | 1260 |
| CCCN(CCC)CCc1c[nH]c2ccccc12 [dpt] | 0.854 | 2340 | 2580 | 4.37 | 0.443 | > 10 | 2.01 | 125 | > 10 | > 10 | > 10 | 1.5 | > 10 | 157 |
| CNC(C)Cc1ccc2c(c1)OCO2 (stereo not given) [mdma] | > 10 | > 10000 | > 10000 | > 10 | > 10 | > 10 | > 10 | > 10000 | > 10 | > 10 | 6.33 | > 10 | > 10 | > 10000 |
| CAS_82830-44-2::(2R)-1-(4-iodo-2,5-dimethoxyphenyl)propan-2-amine::DOI,(-)::US20250270173, Compound DOI | > 10 | 1010 | 165 | > 10 | > 10 | 9.69 | > 10 | 1760 | > 10 | 2.72 | 2.21 | > 10 | > 10 | 685 |
